26 compounds from patent publication US20190284192A1, “NITROGENOUS MACROCYCLIC COMPOUND, PREPARATION METHOD THEREFOR, PHARMACEUTICAL COMPOSITION AND APPLICATION THEREOF” (LUOXIN PHARMACEUTICAL (SHANGHAI) CO., LTD., priority 2016, published 2019) can be followed below.

In assay [1] the target is T1, BRD4 (BD1) (Homo sapiens, UniProt O60885).
T1 construct: Each member comprises two tandem bromodomains (BD1 and BD2) for recognizing the acetylated lysine residues
Description: BRD4 (BD1) bromodomain binding, HTRF. The settings on record: 2 h incubation at r.t.

Assay [2] addresses T2, BRD4 (BD2) (Homo sapiens, UniProt O60885).
T2 construct: Each member comprises two tandem bromodomains (BD1 and BD2) for recognizing the acetylated lysine residues
Description: BRD4 (BD2) bromodomain binding, HTRF. The settings on record: 2 h incubation at r.t. A general note: TR-FRET usually uses a lanthanide donor and a delayed reading to cut background.

The subject of assay [3] is MV-4-11 cells. Description: Inhibitory effect on MV-4-11 cells (CellTiter-Glo). The format is cell-based. The settings on record: Homo sapiens, MV4-11; 72 hours, CellTiter-Glo; read-out: MV-4-11.

pIC50: −log10 of the molar value. Counter-ions that a name gives are not always drawn.

`Cn1cc2c(c1C#N)CCN(c1ccc(F)cc1)c1ccc(CS(C)(=O)=O)cc1-2` [Compound 4004, 6-(4-Fluorophenyl)-2-methyl-9-(methylsulfonylmethyl)-2,4,5,6-tetrahydrobenzo[b]pyrrolo[3,4-d]azepin-3-nitrile]: the figures for the pIC50 in assay [1] and in assay [2] were 6.96 and 6.74, respectively.

For the compound `Cn1cc2c(cc1=O)CNC(c1ccc(F)cc1)c1ccc(CS(C)(=O)=O)cc1-2` (centres unmarked) [Compound 4008, 7-(4-fluorophenyl)-2-methyl-10-(methylsulfonemethyl)-6,7-dihydro-2H-benzo[c]pyrido[3,4-e]azepin-3(5H)-ketone formate], the pIC50 in assay [1] was 6.95; in assay [2], 7.55.

With `Cn1cc2c(cc1=O)CN=C(c1ccc(Cl)cc1)c1ccccc1-2` [Compound 4010, 7-(4-chlorophenyl)-2-methyl-2H-benzo[c]pyrido[3,4-e]azepin-3(5H)-ketone], the pIC50 in assay [1] is 7.52; in assay [2], 7.37; in assay [3], 6.20.

As to `CCS(=O)(=O)Cc1ccc2c(c1)-c1cn(C)c(=O)cc1CN=C2c1ccc(Cl)cc1F` [Compound 4013, 7-(4-chloro-2-fluorophenyl)-10-((ethylsulfone)methyl)-2-methyl-2,5-dihydro-3H-benzo[c]pyrido[3,4-e]azepin-3-ketone], the pIC50 in assay [1] was 8.15; in assay [2], 8.70; in assay [3], 7.12.

As for `Cn1cc2c(cc1=O)[C@H](CC(N)=O)N=C(c1ccc(F)cc1)c1ccc(CS(C)(=O)=O)cc1-2` [Compound 4014, (S)-2-(7-(4-fluorophenyl)-2-methyl-10-(methylsulfonylmethyl)-3-oxo-3,5-dihydro-2H-benzo[c]pyrido[3,4-e]azepin-5-yl)acetamide], the pIC50 was 8.70 in assay [1], 9.00 in assay [2] and 6.53 in assay [3].

Take `CCNC(=O)C[C@@H]1N=C(c2ccc(F)cc2)c2ccc(CS(C)(=O)=O)cc2-c2cn(C)c(=O)cc21` [Compound 4015, (S)—N-ethyl-2-(7-(4-fluorophenyl)-2-methyl-10-(methylsulfonemethyl)-3-oxo-3,5-dihydro-2H-benzo[c]pyrido[3,4-e]azepin-5-yl)acetamide]: the pIC50 in assay [1] was 8.70; in assay [2], 9.00; in assay [3], 7.16.

Consider `COc1ccc2c(c1)-c1cn(C)c(=O)cc1CN=C2c1ccc(F)cc1` [Compound 4019, 7-(4-fluorophenyl)-10-methoxy-2-methyl-2,5-dihydro-3H-benzo[c]pyrido[3,4-e]azepin-3-one], for which the pIC50 in assay [1] was 8.00; in assay [2], 7.43; in assay [3], 6.84.

With `COc1ccc2c(c1)C(c1ccc(F)cc1)=NCc1cc(=O)n(C)cc1-2` [Compound 4020, 7-(4-fluorophenyl)-9-methoxy-2-methyl-2,5-dihydro-3H-benzo[c]pyrido[3,4-e]azepin-3-one], the pIC50 was 7.96 in assay [1], 8.00 in assay [2] and 6.87 in assay [3].

As to `CCS(=O)(=O)Cc1cnc2c(c1)-c1cn(C)c(=O)cc1CN=C2c1ccc(F)cc1` [Compound 4022, 10-((ethylsulfonyl)methyl)-7-(4-fluorophenyl)-2-methyl-2,5-dihydro-3H-dipyrido[2,3-c: 3′,4′-e]azepin-3-ketone], the pIC50 in assay [1] is 7.92; in assay [2] it was 8.15; in assay [3] it was 6.72.

Consider `CCS(=O)(=O)Nc1ccc2c(c1)-c1cn(C)c(=O)cc1CN=C2c1ccc(Cl)cc1` [Compound 4024, N-(7-(4-chlorophenyl)-2-methyl-3-oxo-3,5-dihydro-2H-benzo[c]pyrido[3,4-e]azepin-3-yl)ethanesulfonamide], for which the figures for the pIC50 in assay [1], in assay [2] and in assay [3] were 8.70, 9.00 and 8.05, respectively.

With `C[C@@H]1N=C(c2ccc(Cl)cc2)c2ccccc2-c2cn(C)c(=O)cc21` [Compound 4025, (S)-7-(4-chlorophenyl)-2,5-dimethyl-2,5-dihydro-3H-benzo[c]pyrido[3,4-e]azepin-3-ketone], the figures for the pIC50 in assay [1], in assay [2] and in assay [3] were 8.15, 8.52 and 7.27, respectively.

Take `CCS(=O)(=O)Cc1cc2c(cn1)C(c1ccc(Cl)cc1)=NCc1cc(=O)n(C)cc1-2` [Compound 4027, 7-(4-chlorophenyl)-10-((ethylsulfonyl)methyl)-2-methyl-2,5-dihydro-3H-dipyrido[3,4-c:3′,4′-e]azepin-3-ketone]: the values for the pIC50 in assay [1], in assay [2] and in assay [3] were 7.92, 8.22 and 6.89, respectively.

For `CCNC(=O)C[C@@H]1N=C(c2ccc(F)cc2)c2c(ccc(OC)c2F)-c2cn(C)c(=O)cc21` [Compound 4035, (S)—N-ethyl-2-(8-fluoro-7-(4-flurophenyl)-9-methoxyl-2-methyl-3-oxo-3,5-dihydro-2H-benzo[c]pyrido[3,4-e]azepin-5-yl)acetamide], the pIC50 in assay [1] is 8.52; in assay [2] it was 9.00.

In the case of `CCNC(=O)C[C@@H]1N=C(c2ccc(F)cc2)c2cc(OC)c(F)cc2-c2cn(C)c(=O)cc21` [Compound 4036, (S)—N-ethyl-2-(10-fluoro-7-(4-flurophenyl)-9-methoxyl-2-methyl-3-oxo-3,5-dihydro-2H-benzo[c]pyrido[3,4-e]azepin-5-yl)acetamide], the pIC50 was 8.30 in assay [1] and 8.70 in assay [2].

As for `CCS(=O)(=O)Cc1ccc2c(c1)C(c1ccc(F)cc1)=NCc1cc(=O)n(C)cc1-2` [Compound 4039, 9-((ethylsulfonyl)methyl)-7-(4-flurophenyl)-2-methyl-2,5-dihydro-3H-benzo[c]pyrido[3,4-e]azepin-3-ketone], the pIC50 in assay [1] was 6.79; in assay [2], 6.69.

On to `CCS(=O)(=O)Cc1ccc2c(c1)-c1cn(C)c(=O)cc1C1(CC1)N=C2c1ccc(F)cc1` [Compound 4041, 10-((ethylsulfonyl)methyl)-7-(4-flurophenyl)-2-methyl spiro[benzo[c]pyrido[3,4-e]azepin-5,1′-cyclopropane]-3(2H)-ketone], for which the pIC50 in assay [1] and in assay [2] was 7.92 throughout.

`CNS(=O)(=O)Nc1ccc2c(c1)-c1cn(C)c(=O)cc1[C@H](C)N=C2c1ccc(F)cc1` [Compound 4050, (S)—N-(7-(4-flurophenyl)-2,5-dimethyl-3-oxo-3,5-dihydro-2H-benzo[c]pyrido[3,4-e]azepin-10-yl)methylamine sulfonamide]: the results for the pIC50 in assay [1] and in assay [2] were 7.77 and 8.05, respectively.

On to `CCS(=O)(=O)Cc1ccc2c(c1)-c1cn(C)c(=O)cc1CN=C2c1cc(OC)c(F)cc1Cl` [Compound 4096, 7-(2-chloro-4-fluoro-5-methoxylphenyl)-10-((ethylsulfonyl)methyl)-2-methyl-2,5-dihydro-3H-benzo[c]pyrido[3,4-e]azepin-3-ketone], for which the pIC50 in assay [1] is 7.36; in assay [2], 8.40.

In the case of `CCS(=O)(=O)Cc1ccc2c(c1)-c1nn(C)c(=O)cc1C(C)N=C2c1ccc(F)cc1Cl` (centres unmarked) [Compound 4097, 7-(2-chloro-4-flurophenyl)-10-((ethylsulfonyl)methyl)-2,5-dimethyl-2,5-dihydro-3H-benzo[c]pyridazino[3,4-e]azepin-3-ketone], the pIC50 in assay [1] was 7.70; in assay [2], 8.52.

For the compound `Cn1cc2c(cc1=O)CN=C(c1ccc(F)cc1Cl)c1ccc(CS(C)(=O)=O)cc1-2` [Compound 4098, 7-(2-chloro-4-flurophenyl)-2-methyl-10-((dimethylfulfone)methyl)-2,5-dihydro-3H-benzo[c]pyrido[3,4-e]azepin-3-ketone], the pIC50 in assay [1] is 7.66; in assay [2] it was 8.52.

As to `CNS(=O)(=O)Cc1ccc2c(c1)-c1cn(C)c(=O)cc1N(C)N=C2c1ccc(F)cc1` [Compound 4099, 1-(7-(4-flurophenyl)-2,5-dimethyl-3-oxo-3,5-dihydro-2H-benzo[e]pyrido[4,3-c][1,2]diazepin-10-yl)-N-methylmethane sulfamide], the pIC50 is 8.70 in assay [1] and 9.05 in assay [2].

Turning to `CCS(=O)(=O)Cc1ccc2c(c1)-c1cn(C)c(=O)cc1[C@H](C)N=C2c1ccc(F)cc1Cl` [Compound 4101, (S)-7-(2-chloro-4-flurophenyl)-10-((ethylsulfonyl)methyl)-2,5-dimethyl-2,5-dihydro-3H-benzo[c]pyrido[3,4-e]azepin-3-ketone], the figures for the pIC50 in assay [1] and in assay [2] were 8.52 and 9.15, respectively.

Regarding `CCS(=O)(=O)Cc1ccc2c(c1)-c1cn(C)c(=O)cc1[C@H](C)N=C2c1cc(OC)c(F)cc1Cl` [Compound 4102, (S)-7-(2-chloro-4-fluoro-5-methoxylphenyl)-10-((ethylsulfonyl)methyl)-2,5-dimethyl-2,5-dihydro-3H-benzo[c]pyrido[3,4-e]azepin-3-ketone], the pIC50 in assay [1] was 8.30; in assay [2], 9.10.

As for `CNS(=O)(=O)Cc1ccc2c(c1)-c1cn(C)c(=O)cc1[C@H](C)N=C2c1ccc(F)c(OC)c1` [Compound 4103, (S)-1-(7-(4-fluoro-3-methoxylphenyl)-2,5-dimethyl-3-oxo-3,5-dihydro-2H-benzo[c]pyrido[3,4-e]azepin-10-yl)-N-methylmethane sulfamide], the pIC50 in assay [1] was 8.70; in assay [2] it was 9.22.

For the compound `CCS(=O)(=O)Cc1ccc2c(c1)-c1cn(C)c(=O)cc1[C@H](C)N=C2c1ccc(OC)c(F)c1` [Compound 4104, (S)-10-((ethylsulfonyl)methyl)-7-(3-fluoro-4-methoxylphenyl)-2,5-dimethyl-2,5-dihydro-3H-benzo[c]pyrido[3,4-e]azepin-3-ketone], the results for the pIC50 in assay [1] and in assay [2] were 8.70 and 9.00, respectively.

On to `CCS(=O)(=O)Cc1ccc2c(c1)-c1cn(C)c(=O)cc1[C@H](C)N=C2c1ccncc1` [Compound 4105, (S)-10-((ethylsulfonyl)methyl)-2,5-dimethyl-7-(pyridin-4-yl)-2,5-dihydro-3H-benzo[c]pyrido[3,4-e]azepin-3-ketone], for which the pIC50 in assay [1] is 8.70; in assay [2], 9.00.
